Measured values as given in patent US7053043B1, “Pharmaceutical compositions comprising synthetic peptide copolymers and methods for preventing and treating GVHD and HVGD” (Yeda Research and Development Co.Ltd., priority 1999, dated 2006).

Tested on: B10.D2 responder T cells with APC presenting BALB/c mH antigens
Assay: Proliferative responses to minor H antigens in vitro, Cop 1 present in the assay
Type: cell-based, mice
Details: for cpm (Cop 1 Assay Concentration): Resp. + APC
Protocol: B10.D2 mice were injected ip. with irradiated (20 Gy) BALB/c spleen cells 72 hours prior to the assay. B10.D2 spleen cells were harvested, depleted of red blood cells (RBC) and used as irradiated (10 Gy) antigen-presenting cells (APC) presenting BALB/c mH antigens. For the primary assay, APC were plated at 2.5×10^5 cells per well in 96-well round-bottom plates and incubated with 2.5×10^5 nylon-wool-enriched responder T cells (>88% CD3^+ by FACS […]). After 96 hours of incubation, cells were pulsed with 1 μCi [^3H]-thymidine for an additional 16 hours before harvesting. In the secondary assay, irradiated APC were plated at 2.5×10^5 cells/well in 96-well round-bottom plates, preincubated for 24 hours at 37° C. with increasing concentrations of GLAT (2.5–80 μg/well) or with medium alone, and thereafter washed three times before the addition of 2.5×10^5 nylon-wool-enriched responder T cells from naive B10.D2 mice. Culture medium was RPMI 1640, supplemented with 10% pre-screened fetal calf serum, 2 mM glutamine, 50 μM 2-mercaptoethanol, 100 U/ml penicillin, and 100 μg/ml streptomycin.
B10.D2 mice were injected ip with irradiated (20 Gy) BALB/c spleen cells 72 hours prior to the assay. B10.D2 spleen cells were harvested, depleted of RBC and used as irradiated (10 Gy) APC presenting BALB/c mH antigens. APC were plated at 2.5×10^5 cells/well in 96-well round-bottom plates and incubated with 2.5×10^5 nylon-wool-enriched responder T cells (>88% CD3^+ by FACS analysis) from naive B10.D2 mice in the presence or absence of increasing concentrations of Copolymer 1 (Batch I) (2.5–80 μg/well). After 96 hours of incubation, cells were pulsed with 1 μCi [^3H]-thymidine for an additional 16 hours before harvesting. […] Maximum inhibition was 100% at a concentration of 80 μg/well.

With Glatiramer acetate [Cop 1] the “Maximum inhibition of proliferative responses to mH antigens” value (80 μg/well) was 100%, the “cpm (Cop 1 Assay Concentration)” value (Cop 1 1.5 μg) was 124,904 cpm and the “cpm (Cop 1 Assay Concentration)” value (Cop 1 5 μg) was 126,405 cpm. For the same substance, the “cpm (Cop 1 Assay Concentration)” value (Cop 1 10 μg) was 119,866 cpm, the “cpm (Cop 1 Assay Concentration)” value (Cop 1 20 μg) was 75,840 cpm and the “cpm (Cop 1 Assay Concentration)” value (Cop 1 40 μg) was 23,591 cpm. The “cpm (Cop 1 Assay Concentration)” value (Cop 1 80 μg) was 361 cpm.
